Results taken from patent US9943607B2, “Beta-glucan compounds, compositions, and methods” (Biothera, Inc., priority 2011, dated 2018).

Experiments:
[1] = system: human B cells in whole blood; test: β-glucan binding to B cells in whole blood (BfD IV staining, flow cytometry)
Procedure: Blood was collected from a healthy donor with 10 Units/mL Heparin. 100 μL of blood was mixed with IMPRIME PGG concentrations and incubated at 37° C. for 60 minutes. Cells were washed with 2 mL of PBS and supernatant removed by aspiration. Cells were then stained with 20 μL of BfD IV (U.S. Pat. No. 6,294,321) for 30 minutes before washing again with PBS. 10 μL of goat anti-mouse IgM FITC added to stain for BfD IV positive cells, while 10 μL of anti-CD19 APC was added to stain the B cell population for FACS analysis. Cells were incubated for 30 minutes at room temperature before washing with PBS. The red cells in the blood were lysed by the addition of 2 mL of BD Lyse and fixed with 2% paraformadehyde before analysis on an LSR II flow cytometer. Analysis was performed using FlowJo software.

[2] = system: human B cells in enriched PBMC; test: β-glucan binding to B cells in enriched PBMC (BfD IV staining, flow cytometry); settings: various hexose concentrations, 37° C., two hours
Procedure: Enriched PBMC were resuspended at 1×10^6 cells/mL in RPMI 1640 supplemented with 10% serum. The β-glucans (IMPRIME PGG (B) and laminarin (C)) at various hexose concentration were added to the cells and incubated in a 37° C., 5% C02 humidified incubator for two hours. After incubation, cells were washed twice with FACS buffer (HBSS supplemented with 1% FBS and 0.1% sodium azide) to remove any unbound β-glucan, and subsequently treated with Fc block. After the Fc block step, cells were stained with the monoclonal antibody BfD IV (U.S. Pat. No. 6,294,321) for 30 minutes at 4° C. and washed twice with cold FACS buffer. Cells were then incubated with FITC-conjugated F(ab′)2 goat anti-mouse IgM for 30 minutes at 4° C. and washed once with cold FACS buffer before fixing with 1% paraformaldehyde. Events were collected on a LSRII flow cytometer and analysis was performed using FlowJo software. Results are shown in FIG. 2B (IMPRIME PGG) and FIG. 2C (laminarin).

[3] = target: T1, complement receptor 2, (CR2; aka CD21) on B cells (Homo sapiens, UniProt P20023); test: β-glucan binding and CR2 blocking with anti-CR2 antibody; settings: IMPRIME PGG at 100 μg/mL; whole blood or PBMC; anti-CR2 clone 1048 at 10 μg/mL
T1 construct: endogenous in cells; host or cells: B cells in whole blood or PBMC
T1 sequence (P20023 21-1033): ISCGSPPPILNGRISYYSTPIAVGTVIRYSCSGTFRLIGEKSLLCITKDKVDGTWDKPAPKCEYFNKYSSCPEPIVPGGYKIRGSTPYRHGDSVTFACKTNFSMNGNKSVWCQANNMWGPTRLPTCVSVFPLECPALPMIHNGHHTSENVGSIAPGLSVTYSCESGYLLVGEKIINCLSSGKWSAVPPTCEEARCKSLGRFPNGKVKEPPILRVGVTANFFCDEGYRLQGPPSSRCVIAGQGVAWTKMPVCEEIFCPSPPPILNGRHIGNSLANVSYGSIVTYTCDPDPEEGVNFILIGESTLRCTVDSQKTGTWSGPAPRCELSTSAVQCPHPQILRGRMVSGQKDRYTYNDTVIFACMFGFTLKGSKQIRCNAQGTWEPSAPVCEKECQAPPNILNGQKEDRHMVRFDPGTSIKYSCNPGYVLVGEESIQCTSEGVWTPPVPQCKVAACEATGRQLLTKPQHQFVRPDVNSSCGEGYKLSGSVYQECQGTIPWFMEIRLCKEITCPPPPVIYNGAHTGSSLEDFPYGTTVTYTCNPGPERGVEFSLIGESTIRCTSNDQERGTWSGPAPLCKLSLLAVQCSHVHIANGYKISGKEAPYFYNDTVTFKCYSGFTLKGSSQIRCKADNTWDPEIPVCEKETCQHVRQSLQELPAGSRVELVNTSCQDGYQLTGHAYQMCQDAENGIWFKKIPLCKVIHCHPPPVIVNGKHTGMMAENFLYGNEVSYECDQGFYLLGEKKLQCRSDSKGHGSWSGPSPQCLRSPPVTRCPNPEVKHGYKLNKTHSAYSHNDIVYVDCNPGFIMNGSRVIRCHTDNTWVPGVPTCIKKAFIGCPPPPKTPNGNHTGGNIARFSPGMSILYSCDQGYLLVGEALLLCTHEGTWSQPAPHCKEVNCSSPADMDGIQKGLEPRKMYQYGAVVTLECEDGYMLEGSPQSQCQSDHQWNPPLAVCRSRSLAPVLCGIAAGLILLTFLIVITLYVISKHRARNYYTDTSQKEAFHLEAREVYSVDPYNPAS
Procedure: Whole blood or PBMC were pre-incubated with specific receptor blocking antibodies or the relevant isotype controls at 4° C. for 30-45 minutes before addition of IMPRIME PGG at 100 μg/mL. Binding to B cells was performed as described in Example 1. Clone 1048, the mouse mAb against CR2, and mouse IgG1 isotype control was used at 10 μg/mL/1×10^6 cells. Results are shown in FIG. 3B (Whole Blood) and FIG. 3C (PBMC).

[4] = system: CD19+ B cells; test: Targeted binding of β-glucan and β-glucan-ERBITUX conjugate to CD19+ B cells in whole blood; parameters: species or system human; settings: 10 μg/mL, 30 minutes at 37° C.
Procedure: Cells were washed twice with PBS before staining with the β-glucan specific antibody BfD IV (U.S. Pat. No. 6,294,321). Cells were washed again and stained with an antibodies specific for human IgG to detect ERBITUX and CD19 to label B cells. Cells were analyzed on and LSRII flow cytometer and the groups were compared by gating on CD19^+ B cells.

[5] = system: Raji cells; test: Binding of IMPRIME PGG to B cell tumor line Raji; parameters: species or system human; settings: 50 mcg/mL and 200 mcg/mL
[6] = system: Daudi cells; test: Binding of IMPRIME PGG to B cell tumor line Daudi; parameters: species or system human; settings: 50 mcg/mL and 200 mcg/mL
[7] = system: B cells; test: Calcium flux in PBMC B cells treated in vitro with soluble β-glucan, then stimulated with anti-IgM; type: cell-based, human; settings: 100 μg/mL, 37° C., one hour; anti-IgM 2.6 μg/mL
Procedure: FURA RED and FLUO-4 (each from Invitrogen, Life Technologies Corp., Carlsbad, Calif.) calcium stain was added to serum free RPMI medium to a final concentration of 3 μM for each dye, then incubated at 37° C. for 30 minutes. PBMCs mixed 1:1 with media containing 10% FCS and incubated an additional 10 minutes. The cells were washed 2× with media containing 10% FCS. Cells were resuspended in RPMI with 10% human serum.
The resuspended cells were incubated with or without the addition of 100 μg/mL IMPRIME PGG at 37° C. for one hour. The monoclonal antibody CD20 APC (BioLegend, Inc., San Diego, Calif.) was added to each tube for 10 minute incubation before washing 2× with RPMI containing 10% FCS. Cells were resuspended in RPMI with 10% FCS for FACS analysis. Calcium flux was induced by stimulating the B cells with goat anti-human IgM at 2.6 μg/mL.

[8] = system: B cells; test: Calcium flux in B cells of subjects treated in vivo with particulate oral β-glucan, then stimulated with anti-IgM; parameters: species or system human; settings: 100 mg/day to 1000 mg/day, anti-IgM 10, 2 or 0.4 μg/mL
Procedure: Blood was drawn from untreated donors (n=15) or donors (n=12) treated with particulate oral β-glucan (U.S. Pat. No. 7,981,447) at dosages ranging from 100 mg/day to 1000 mg/day. PBMCs were isolated from blood using a ficoll gradient.
The isolated PBMCs were treated with 6 μM FURA RED and 3 μM FLUO-4 (each from Invitrogen, Life Technologies Corp., Carlsbad, Calif.) in PBS for 45 minutes at 37° C. The cells were washed 2× with PBS and stained with anti-CD20 APC (BioLegend, Inc., San Diego, Calif.) for 20 minutes at room temperature. Cells were washed 2× and resuspended in RPMI containing 2.5% FCS for FACS analysis. Calcium flux was induced by stimulating the B cells with goat anti-human IgM at 10 μg/mL, 2 μg/mL, or 0.4 μg/mL.

BT-1110: bovine serum albumin (BSA) conjugated to IMPRIME PGG
MFI of BfD IV staining on B cells compared to unconjugated IMPRIME PGG ([1]; 50 μg/mL, whole blood): higher

Laminarin [reference compound]
binding to B cells in enriched PBMC (MFI of BfD IV staining) [2]: bind directly to human B cells

β(1,6)-[poly-1,3)-D-glucopyranosyl]-poly-b(1,3)-D-glucopyranose [IMPRIME PGG]
binding to B cells in enriched PBMC (MFI of BfD IV staining) [2]: bind directly to human B cells | binding to B cells in whole blood (MFI of BfD IV staining) ([1]; various concentrations, 37° C., 60 minutes): bind directly to human B cells | binding to CR2 on B cells (blocking by anti-CR2 antibody) [3]: binds to complement receptor 2 | β-glucan detected on CD19+ B cells with anti-β-glucan antibody BfD IV [4]: positive for β-glucan | binding to Raji B cell tumor line [5]: bound to these tumor lines in a concentration-dependent manner | binding to Daudi B cell tumor line [6]: bound to these tumor lines in a concentration-dependent manner | calcium flux of B cells after goat anti-human IgM stimulation [7]: larger and more sustained calcium flux

β(1,6)-[poly-1,3)-D-glucopyranosyl]-poly-b(1,3)-D-glucopyranose [particulate form of β-glucan]
calcium flux of B cells after goat anti-human IgM stimulation, treated vs untreated subjects [8]: decrease calcium flux
